Measurements taken from US8012961B2, “Tricyclic antibiotics” (Actelion Pharmaceutical Ltd., priority 2008, dated 2011).
In brackets after ≈: the same amount, converted by molar mass.

System: M. catarrhalis A894
Assay: MIC determination by microdilution in cation-adjusted Mueller-Hinton Broth (NCCLS)
Type: cell-based
Conditions: pH of the test medium 7.2-7.3; for MIC: Moraxella catarrhalis, A894, microdilution method; for MIC M. catarrhalis A894: microdilution method
Protocol: These assays have been performed following the description given in “Methods for dilution Antimicrobial Susceptibility Tests for Bacteria that Grow Aerobically, 4th ed.; Approved standard: NCCLS Document M7-A4; National Committee for Clinical Laboratory Standards: Villanova, Pa., USA, 1997”. Minimal inhibitory concentrations (MICs; mg/l) were determined in cation-adjusted Mueller-Hinton Broth by a microdilution method following NCCLS guidelines (National Committee for Clinical Laboratory Standards. Methods for Dilution Antimicrobial Susceptibility). The pH of the test medium was 7.2-7.3. All Example compounds were tested against several Gram positive and Gram negative bacteria such as S. aureus, E. faecalis, S. pneumoniae, M. catarrhalis or E.coli.

Structure (SMILES)	MIC	MIC M. catarrhalis A894
COc1ccc2ncc3c(c2n1)C(CN1CC[C@@H](CNCc2cc4c(cn2)OCCO4)C1)CO3 (mixture of isomers) [Example 12, (2,3-dihydro-[1,4]dioxino[2,3-c]pyridin-7-ylmethyl) -[(3S)-1-((1RS)-8-methoxy-1,2-dihydro-3-oxa-5,9-diaza-cyclopenta[a]naphthalen-1-ylmethyl)-pyrrolidin-3-ylmethyl]-amine]	≤ 0.031 µg/mL	–
COc1ccc2ncc3c(c2n1)C(CN1CC[C@@H](CNCc2ccc4c(n2)NC(=O)CS4)C1)CO3 (mixture of isomers) [Example 14, 6-({[(3S)-1-((1RS)-8-methoxy-1,2-dihydro-3-oxa-5,9-diaza-cyclopenta[a]naphthalen-1-ylmethyl)-pyrrolidin-3-ylmethyl]-amino}-methyl)-4H-pyrido[3,2-b][1,4]thiazin-3-one]	≤ 0.031 µg/mL	–
COc1ccc2ncc3c(c2n1)C(CN1CCO[C@@H](CNCc2ccc4c(n2)NC(=O)CS4)C1)CO3 (mixture of isomers) [Example 25, 6-({[(2S)-4-((1RS)-8-methoxy-1,2-dihydro-3-oxa-5,9-diaza-cyclopenta[a]naphthalen-1-ylmethyl)-morpholin-2-ylmethyl]-amino}-methyl)-4H-pyrido[3,2-b][1,4]thiazin-3-one]	≤ 0.031 µg/mL	–
COc1ccc2ncc3c(c2n1)C(CN1CCO[C@@H](CNCc2cc4c(cn2)OCCO4)C1)CO3 (mixture of isomers) [Example 26, (2,3-dihydro-[1,4]dioxino[2,3-c]pyridin-7-ylmethyl) -[(2S)-4-((1RS)-8-methoxy-1,2-dihydro-3-oxa-5,9-diaza-cyclopenta[a]naphthalen-1-ylmethyl)-morpholin-2-ylmethyl]-amine]	≤ 0.031 µg/mL	–
COc1ccc2ncc3c(c2n1)C(CN1CCC[C@@H](CNCc2ccc4c(n2)NC(=O)CS4)C1)CO3 (mixture of isomers) [Example 28, 6-({[(3S)-1-((1RS)-8-methoxy-1,2-dihydro-3-oxa-5,9-diaza-cyclopenta[a]naphthalen-1-ylmethyl)-piperidin-3-ylmethyl]-amino}-methyl)-4H-pyrido[3,2-b][1,4]thiazin-3-one]	≤ 0.031 µg/mL	–
COc1ccc2ncc3c(c2n1)C(CN1CCC[C@@H](CNCc2ccc4c(c2)NC(=O)CO4)C1)CO3 (mixture of isomers) [Example 31, 6-({[(3S)-1-((1RS)-8-methoxy-1,2-dihydro-3-oxa-5,9-diaza-cyclopenta[a]naphthalen-1-ylmethyl)-piperidin-3-ylmethyl]-amino}-methyl)-4H-benzo[1,4]oxazin-3-one]	≤ 0.031 µg/mL	–
COc1ccc2ncc3c(c2n1)C(CN1CCC[C@@H](CNCc2cc4c(nn2)OCCO4)C1)CO3 (mixture of isomers) [Example 39, (6,7-dihydro-[1,4]dioxino[2,3-c]pyridazin-3-ylmethyl)-[(3S)-1-((1RS)-8-methoxy-1,2-dihydro-3-oxa-5,9-diaza-cyclopenta[a]naphthalen-1-ylmethyl)-piperidin-3-ylmethyl]-amine]	≤ 0.031 µg/mL	–
COc1ccc2ncc3c(c2n1)C(CN1CCC(NCc2ccc4c(n2)NC(=O)CS4)CC1)CO3 (racemic) [Example 7, rac-6-{[1-(8-methoxy-1,2-dihydro-3-oxa-5,9-diaza-cyclopenta[a]naphthalen-1-ylmethyl)-piperidin-4-ylamino]-methyl}-4H-pyrido[3,2-b][1,4]thiazin-3-one]	≤ 0.031 µg/mL	–
COc1ccc2ncc3c(c2n1)C(CN1CCC(NCc2cc4c(nn2)OCCO4)CC1)CO3 (racemic) [Example 8, rac-(6,7-dihydro-[1,4]dioxino[2,3-c]pyridazin-3-ylmethyl)-[1-(8-methoxy-1,2-dihydro-3-oxa-5,9-diaza-cyclopenta[a]naphthalen-1-ylmethyl) -piperidin-4-yl]-amine]	≤ 0.031 µg/mL	–
COc1ccc2ncc3c(c2n1)C(CN1CCC(NCc2cc4c(cn2)OCCO4)CC1)CO3 (racemic) [Example 9, rac-(2,3-dihydro-[1,4]dioxino[2,3-c]pyridin-7-ylmethyl)-[1-(8-methoxy-1,2-dihydro-3-oxa-5,9-diaza-cyclopenta[a]naphthalen-1-ylmethyl)-piperidin-4-yl]-amine]	≤ 0.031 µg/mL	–
COc1ccc2ncc3c(c2n1)C(CN1[C@@H]2CC[C@H]1C[C@H](NCc1cc4c(cn1)OCCO4)C2)CO3 (mixture of isomers) [Example 20, (2,3-dihydro-[1,4]dioxino[2,3-c]pyridin-7-ylmethyl) -[(3-exo)-8-((1RS)-8-methoxy-1,2-dihydro-3-oxa-5,9-diaza-cyclopenta[a]naphthalen-1-ylmethyl)-8-aza-bicyclo[3.2.1]oct-3-yl]-amine]	–	≦0.031 mg/l
COc1ccc2ncc3c(c2n1)C(CN1C2CCC1CC(NCc1ccc4c(n1)NC(=O)CO4)C2)CO3 (racemic) [Example 22, 6-{[(3-exo)-8-((1RS)-8-methoxy-1,2-dihydro-3-oxa-5,9-diaza-cyclopenta[a]naphthalen-1-ylmethyl)-8-aza-bicyclo[3.2.1]oct-3-ylamino]-methyl}-4H-pyrido[3,2-b][1,4]oxazin-3-one]	–	≦0.031 mg/l
COc1ccc2ncc3c(c2n1)C(CN1[C@@H]2CC[C@H]1C[C@H](NCc1ccc4c(n1)NC(=O)CS4)C2)CO3 (mixture of isomers) [Example 23, 6-{[(3-exo)-8-((1RS)-8-methoxy-1,2-dihydro-3-oxa-5,9-diaza-cyclopenta[a]naphthalen-1-ylmethyl)-8-aza-bicyclo[3.2.1]oct-3-ylamino]-methyl}-4H-pyrido[3,2-b][1,4]thiazin-3-one]	–	≦0.031 mg/l
COc1ccc2ncc3c(c2n1)C(CN1CCO[C@@H](CNCc2ccc4c(n2)NC(=O)CO4)C1)CO3 (mixture of isomers) [Example 24, 6-({[(2S)-4-((1RS)-8-methoxy-1,2-dihydro-3-oxa-5,9-diaz-cyclopenta[a]naphthalen-1-ylmethyl)-morpholin-2-ylmethyl]-amino}-methyl) -4H-pyrido[3,2-b][1,4]oxazin-3-one]	–	≦0.031 mg/l

The next lines start with the values.

MIC	MIC M. catarrhalis A894	Structure (SMILES)
≤ 0.031 µg/mL	–	COc1ccc2ncc3c(c2n1)C(CN1CC[C@@H](CNC/C=C/c2cc(F)ccc2F)C1)CO3 (mixture of isomers) [Example 13, [(E)-3-(2,5-difluoro-phenyl)-allyl]-[(3S)-1-((1RS)-8-methoxy-1,2-dihydro-3-oxa-5,9-diaza-cyclopenta[a]naphthalen-1-ylmethyl)-pyrrolidin-3-ylmethyl]-amine]
≤ 0.031 µg/mL	–	COc1ccc2ccc3c(c2n1)C(CN1CCC(NC/C=C/c2cc(F)ccc2F)CC1)CO3 (racemic) [Example 1, rac-[(E)-3-(2,5-difluoro-phenyl)-allyl]-[1-(2-methoxy-8,9-dihydro-furo[2,3-h]quinolin-9-ylmethyl)-piperidin-4-yl]-amine]
≤ 0.031 µg/mL	–	COc1ccc2ccc3c(c2n1)C(CN1CCC(NCc2cc4c(cn2)OCCO4)CC1)CO3 (racemic) [Example 2, rac-(2,3-dihydro-[1,4]dioxino[2,3-c]pyridin-7-ylmethyl)-[1-(2-methoxy-8,9-dihydro-furo[2,3-h]quinolin-9-ylmethyl)-piperidin-4-yl]-amine]
≤ 0.031 µg/mL	–	COc1ccc2ccc3c(c2n1)C(CN1CCC(NCc2cc4c(nn2)OCCO4)CC1)CO3 (racemic) [Example 3, rac-(6,7-dihydro-[1,4]dioxino[2,3-c]pyridazin-3-ylmethyl)-[1-(2-methoxy-8,9-dihydro-furo[2,3-h]quinolin-9-ylmethyl)-piperidin-4-yl]-amine]
≤ 0.031 µg/mL	–	COc1ccc2ccc3c(c2n1)C(CN1CCC(NCc2ccc4c(n2)NC(=O)CS4)CC1)CO3 (racemic) [Example 4, rac-6-{[1-(2-methoxy-8,9-dihydro-furo[2,3-h]quinolin-9-ylmethyl) -piperidin-4-ylamino]-methyl}-4H-pyrido[3,2-b][1,4]thiazin-3-one]
≤ 0.031 µg/mL	–	COc1ccc2ccc3c(c2n1)C(CN1CCC(NCc2ccc4c(n2)NC(=O)CO4)CC1)CO3 (racemic) [Example 5, rac-6-{[1-(2-methoxy-8,9-dihydro-furo[2,3-h]quinolin-9-ylmethyl) -piperidin-4-ylamino]-methyl}-4H-pyrido[3,2-b][1,4]oxazin-3-one]
≤ 0.031 µg/mL	–	COc1ccc2ncc3c(c2n1)C(CN1CCC(NCc2ccc4c(n2)NC(=O)CO4)CC1)CO3 (racemic) [Example 6, rac-6-{[1-(8-methoxy-1,2-dihydro-3-oxa-5,9-diaza-cyclopenta[a]naphthalen-1-ylmethyl)-piperidin-4-ylamino]-methyl}-4H-pyrido[3,2-b][1,4]oxazin-3-one]
≤ 0.031 µg/mL	–	COc1ccc2ncc3c(c2n1)C(CN1CCC(NCc2ccc4c(c2)OCCO4)CC1)CO3 (racemic) [Example 10, rac-(2,3-dihydro-benzo[1,4]dioxin-6-ylmethyl)-[1-(8-methoxy-1,2-dihydro-3-oxa-5,9-diaza-cyclopenta[a]naphthalen-1-ylmethyl)-piperidin-4-yl]-amine]
0.125 µg/mL (≈ 0.27 µM)	–	COc1ccc2ccc3c(c2n1)C(CN1CCC(NCc2ccc4c(n2)OCCO4)CC1)CO3 (racemic) [Example 11, rac-(2,3-dihydro-[1,4]dioxino[2,3-b]pyridin-6-ylmethyl)-[1-(2-methoxy-8,9-dihydro-furo[2,3-h]quinolin-9-ylmethyl)-piperidin-4-yl]-amine]
≤ 0.031 µg/mL	–	COc1ccc2ccc3c(c2n1)C(CN1CCC(NCc2ccc4c(c2)NC(=O)CO4)CC1)CO3 (racemic) [Example 15, rac-6-{[1-(2-methoxy-8,9-dihydro-furo[2,3-h]quinolin-9-ylmethyl) -piperidin-4-ylamino]-methyl}-4H-benzo[1,4]oxazin-3-one]
–	≦0.031 mg/l	COc1ccc2ncc3c(c2n1)C(CN1C2CCC1CC(NC/C=C/c1cc(F)ccc1F)C2)CO3 (racemic) [Example 21, [(E)-3-(2,5-difluoro-phenyl)-allyl]-[(3-exo)-8-((1RS)-8-methoxy-1,2-dihydro-3-oxa-5,9-diaza-cyclopenta[a]naphthalen-1-ylmethyl)-8-aza-bicyclo[3.2.1]oct-3-yl]-amine]
